From patent US5049686A, “Novel large-ring diamine platinum(II) and platinum(IV) chelates” (Warner-Lambert Company, priority 1989, dated 1991)

Legend:
Assay type in all cases: cell-based, murine
[1] = system: L1210S; test: In vitro cytotoxicity, growth inhibition of normal L1210 cell line over 72 hours; conditions: for factor of crossresistance (resistance ratio): ID50 divided by ID50 against normal cell line, in parentheses, 4320 min; for ID50: normal L1210 cell line, 72 hours
Protocol: (§1) ID50 values are the concentration of complex required to inhibit the in vitro growth of treated cells to a level of 50% of that for untreated cells over a 72-hour period. The cell lines are suspended in appropriate media at a concentration which results in the cells remaining in log phase growth throughout the treatment period. Serially diluted drug is added to duplicate wells containing the cell growth. After 72 hours of incubation of the cell lines in 5% CO2, the cells are counted and the ID50 values determined.
(§2) Resistance ratio values shown in Table 1 were calculated by dividing the ID50 values against the resistant cell lines by the ID50 values against the normal cell lines. The resistance ratio values shown in the table indicate a measure of the degree of resistance of the cell line to a particular drug.

[2] = system: L1210PtR4; test: In vitro cytotoxicity, growth inhibition of resistant L1210 cell line L1210PtR4 over 72 hours; conditions: for ID50: 72 hours; for factor of crossresistance (resistance ratio): ID50 resistant / ID50 normal cell line, in parentheses, 4320 min
Protocol: as §1, §2

[3] = system: L1210DDP5; test: In vitro cytotoxicity, growth inhibition of resistant L1210 cell line L1210DDP5 over 72 hours; conditions: for ID50: 72 hours; for factor of crossresistance (resistance ratio): ID50 resistant / ID50 normal cell line, in parentheses, 4320 min
Protocol: as §1, §2

[4] = system: L1210DACH; test: In vitro cytotoxicity, growth inhibition of Pt(DACH)Cl2-resistant L1210 cell line over 72 hours; conditions: for ID50 / factor of crossresistance (resistance ratio): L1210DACH; for ID50: 72 hours; for factor of crossresistance (resistance ratio): ID50 resistant / ID50 normal cell line, in parentheses; for factor of crossresistance (resistance ratio) / cross resistance to Pt(DACH)Cl2-resistant L1210 cells in culture: 4320 min
Protocol: as §1, §2

[5] = system: L1210 cell lines; test: In vitro antitumor activity against L1210 cell lines compared with cisplatin; conditions: in words
Protocol: as §1, §2

[6] = system: cisplatin-resistant cells; test: In vitro activity against cisplatin-resistant L1210 cells compared with cisplatin; conditions: in words; for effectiveness against cisplatin-resistant cells: compared with cisplatin
Protocol: as §1, §2

With `NC1CCCCC1N.[Cl][Pt][Cl]` (stereo not drawn) [[Pt(trans-l-DACH)Cl2], [SP-4-2-(1R-trans)]-dichloro(1,2-cyclohexanediamine-N,N')platinum, reference compound] the “factor of crossresistance (resistance ratio)” value (shortened to “factor … (resistance ratio)”) [1] was 1, the ID50 [1] was 0.088 µg/mL and the ID50 [2] was 0.159 µg/mL. For the same compound, the “factor … (resistance ratio)” value [2] was 1.8, the ID50 [3] was 0.176 µg/mL and the “factor … (resistance ratio)” value [3] was 2. The ID50 [4] was 2.67 µg/mL, the “factor … (resistance ratio)” value [4] was 30 and the “cross resistance to Pt(DACH)Cl2-resistant L1210 cells in culture” value (“cross resistance … in culture” for short) [4] was 30 fold.
“(SP-4-2)-Dichloro(1,5-pentanediamine-N,N')-platinum [Example 1]” was tested, and the “factor … (resistance ratio)” value [1] was 1, the ID50 [1] was 0.43 µg/mL and the ID50 [2] was 1.13 µg/mL. The “factor … (resistance ratio)” value [2] was 2.6, the ID50 [3] was 1.58 µg/mL and the “factor … (resistance ratio)” value [3] was 3.7. For the same compound, the ID50 [4] was 1.17 µg/mL, the “factor … (resistance ratio)” value [4] was 2.7 and the “cross resistance … in culture” value [4] was 2.7 fold. For the same compound, the “antitumor activity compared to cisplatin (potency and response)” value [5] was “superior to cisplatin both in potency and response”, the “effectiveness against cisplatin-resistant cells” value [6] was “more effective than cisplatin against cisplatin-resistant cells” and the “cross resistance to cisplatin” value [6] was “some degree of cross resistance to cisplatin”.
For “(SP-4-2)-Dichloro(1,6-hexanediamine-N,N')-platinum [Example 2]”, the “factor … (resistance ratio)” value [1] was 1, the ID50 [1] was 0.93 µg/mL and the ID50 [2] was 2.8 µg/mL. The “factor … (resistance ratio)” value [2] was 3, the ID50 [3] was 3.7 µg/mL and the “factor … (resistance ratio)” value [3] was 4. The ID50 [4] was 2.13 µg/mL, the “factor … (resistance ratio)” value [4] was 2.3 and the “cross resistance … in culture” value [4] was 2.3 fold. For the same compound, the “antitumor activity compared to cisplatin (potency and response)” value [5] was “superior to cisplatin both in potency and response”, the “effectiveness against cisplatin-resistant cells” value [6] was “more effective than cisplatin against cisplatin-resistant cells” and the “cross resistance to cisplatin” value [6] was “some degree of cross resistance to cisplatin”.
`N.N.[Cl][Pt][Cl]` [Cisplatin, cis-diaminedichloroplatinum(II), reference compound] gave an ID50 [1] of 0.34 µg/mL, an ID50 [2] of 3.61 µg/mL and an ID50 [3] of 5.63 µg/mL. For the same compound, the ID50 [4] was 0.467 µg/mL.
